# Test results reported in patent US7196063B1, “Peptides and pharmaceutical compositions comprising same” (NST NeuroSurvival Technologies Ltd., priority 1999, dated 2007).
# Entries after “also recorded” stand apart in the source; their conditions may differ. Read-outs that look alike come from different tables or passages of the source.
# Columns and labels:
# [1] = test system: apoptotic hepatocytes; format: in vivo, mice; conditions: data not shown
# Experimental: Massive hepatic apoptosis can be induced within 1–2 hr in mice following intravenous injection of anti-Fas antibody (Ogasawara J. et al., 1993, Nature, 364, 806–809). […] Five-weeks-old male BALB/c mice were injected intravenously with 10 μg/animal of purified hamster anti-Fas mAb (Jo2, PharMingen, San Diego, Calif.) using the model described by Ogasawara et. al. (Nature, 1993, 364, 806–809). […] Injections were performed at different time intervals between 5 min–2 hr after antibody treatment. […] All animals were killed 2 hr after administration of antibody followed by organ removal. Heart, lung and liver were collected. Liver were sectioned transversely across the mid-portion of each lobe; organs were fixed in phosphate-buffered formalin for histological and immunohisto-chemical analyses.
# Formalin fixed paraffin-embedded tissues were sectioned (5 μm) for staining with Hematoxylin/Eosin or other techniques. Endogenous peroxidase activity was blocked by incubation with 3% H2O2.
# After washing with PBS, staining was developed with 3,3-diaminobenzidine tetrahydrochloride (DAB), and counterstained with Hematoxylin.
# Liver sections from different lobes were used for detection of stained apoptotic cells compared to normal cells. Using light microscopy (×400), twenty fields of stained cells were evaluated. A ratio between the number of stained apoptotic hepatocytes versus stained normal hepatocytes in the field was defined. The stained cell's score (%) corresponds to the mean of the values for the twenty evaluated fields.
# The percentage of apoptotic cells in the fields was estimated by evaluating parallel sections stained with Hematoxylin/Eosin. Analysis was performed blindly, since the pathologist performing the histological evaluation was unaware of the assignment of mice to the treatment or control group.
# To quantitate the microscopic examination of the pharmacokinetics studies, the number of stained cells from 20 microscopic fields was counted.
# [2] = within 5 minutes; rabbits; intravenous injection; cited from earlier work
# [3] = test system: arterial thrombosis; conditions: intravenous administration; carotid artery injury model; cited from earlier work
# [4] = test system: HUVEC cells; experiment: Binding to endothelial HUVEC cells by FACS analysis; format: cell-based, Human; conditions: 250 μM
# Experimental: Binding detection was done using flow cytometric analysis to populations of HUVEC cells.
# HUVEC (CC-2517, obtained from Clonetics, Walkersville, Md.) were grown on tissue culture flasks in Endothelial cell medium (EGM-2 Bulletkit, CC 3162, Clonetics). Mid-confluent cultures were harvested using Trypsine/EDTA solution (CC-5012, Clonetics). The cells were rinsed twice with TBS containing 2% BSA and kept on ice. Samples of 10^6 cells were tested for binding.
# Cells were washed in 1 ml of TBS-BSA and centrifuged as before and then suspended in 100 μl of TBS-BSA containing streptavidin conjugated to fluorescein (FITC) for detection of the bound biotinylated compound. […] Thereafter, 400 μl of TBS-BSA were added and cells were entrifuged and re-suspended in 400 μl of TBS and taken for FACS analysis.
# [5] = test system: apoptotic HeLa cells; experiment: Modified APTT test with apoptotic HeLa cells as pro-coagulant surface; format: cell-based
# Experimental: Apoptotic and control HeLa cells were prepared as described for the FACS analysis. Equal numbers of apoptotic or control non-treated cells (5×10^4) in a volume of […], were mixed with 100 μl of normal plasma, incubated for 1 min at 37° C. in a bath and then calcified by addition of 100 μl of 25 mM CaCl2, and clotting time was measured. Inhibition of the pro-coagulant activity of the apoptotic cells by NST500 compounds was tested following pre-incubation of apoptotic cells for 20 min. at room temperature with increased concentrations of the different NST 500 compounds.
# The results can be seen in FIG. 4B.
# [6] = test system: apoptotic HeLa cells; conditions: 250 μM; FACS
# Experimental: Detection of binding to apoptotic HeLa cells was performed according to the following procedure: Cells were plated on tissue culture plates at a density of 5×10^6 cells/10 cm dish, and grown in their normal medium at 37° C. for 18 hr. The medium was replaced with a medium containing 2% FCS and 500 μM of dopamine. Eighteen hours later, floating cells that were identified as advanced apoptotic cells were collected and transferred to a 50 ml tube. To evaluate the level of apoptosis in the cultures, aliquots of 10^5 cells from the cultures were plated on 48 wells plate and stained with Hoechst 33342 dye (Molecular Probes) at a concentration of 1 mg/ml for 20 min (as described above). Non-treated cells served as control. For collecting the non-treated cells, the medium of the culture was aspirated and discarded, the cells were rinsed with growing medium and 2 ml of medium were added to the culture dish. The cells were detached from the culture dish using a cell scraper and separated to single cells by passage through a syringe with a 18G needle.
# The reactions were incubated at room temperature for 40 minutes and then 400 μl of TBS was added and cells were collected by centrifugation at 3000×g for 3 minutes. Cells were washed in 1 ml of TBS and centrifuged as before and detecting of the bound compound was performed using 100 μl of TBS containing streptavidin conjugated to fluorescein (FITC) (016-090-084 from Jackson ImmunoResearch lab. Inc.). Incubation was for 15 minutes at room temperature in the dark. Thereafter, 400 μl of TBS was added and cells were centrifuged and washed again with 1 ml of TBS as before, re-suspended in 400 μl of TBS and then taken for FACS analysis. The FACS analysis was performed on Beckton-Dickinson cell sorter, using lysis II software. Excitation was at 488 nm and emission for FITC detection was at 535 nm and for PI detection at 585 nm.
# [7] = test system: HUVEC cells; experiment: Thrombin generation by HUVEC cells; format: cell-based, Human
# From the text: In vivo, vascular endothelial cells are known to catalyze the formation of thrombin, due to expression of PS on their plasma membrane, at which pro-coagulant complexes are assembled (Van Hardee W L et al., 1994, Biochem J. 302, 305–312). Endothelial cells (EC) play an active role in determining the pro-coagulant/anti-coagulant balance in the vascular system (Gimborne M A et al., 1995, Ann. N. Y. Acad Sci 748, 122–132). Perturbed endothelial cells dramatically increase their pro-coagulant state. […] (FIG. 4D). When HUVEC cells (1.5×10^5) were incubated with the S-2366 substrate, thrombin generation was evident after a lag time of 12.5 minutes, which reflects the time required to assemble a functional complex on the HUVEC surface.
# The effect of NST516 compound on HUVEC mediated-thrombin generation was studied.
# [8] = test system: cardiolipin
# From the text: The antiphospholipid antibody syndrom (APS) is a thrombophilic condition, characterized by a panel of antibodies that recognize anionic phospholipid-protein cofactor complexes. The antiphospholipid antibodies lupus anticoagulant and anticardiolipin, (present in high concentrations in SLE patients), are associated with several medical disorders including artherial and venous thrombosis, and recurrent pregnancy loss (Rand J H et al., 1998, Blood. 92, 1652–1660). […] Noncellular negatively charged phospholipid coated surface (cardiolipin) were chosen as a target for binding.
# CL, (Diphosphatidylglycerol, c-1649, Sigma), prepared at 50 μg/ml in ethanol, was added to a 96 well plate (100 μl/well) using Immunolon 4 plates (Dynatech, Chantilly, Va.) and incubated for 16–20 hr for evaporation of ethanol. As control, wells were coated with ethanol only. The coated plates were washed 3 times with 100 μl of blocking buffer (PBS containing 0.3% gelatin (Sigma) and 1 mM EDTA) to block non specific binding. A 5 min incubation time was used between each wash. Normal plasma (Ilex, Italy, 84670-11) and plasma derived from SLE patients (either from Gradipore, Australia, LAHP-1, or from Biopool, Ventura, Calif.) were prepared according to the producer's instruction. The plasma was diluted 1/10 in the blocking buffer and was added to the CL and ethanol coated wells. […] Following 3 hr incubation, the plates were washed twice with PBS/BSA buffer (0.4% bovine serum albumine (BSA) in PBS). For detection of anti cardiolipin binding property of the tested plasma, the plates were incubated with a 1/10000 dilution of Peroxidase-conjugated affinity purified Goat anti-human IgG (Jackson Immunoresearch lab.) in PBS/BSA buffer for 1 hour. The plates were then washed 3 times with PBS/BSA buffer, and color reaction was developed by incubation with 100 ul of 0-phenylenedi-amine (OPD) dihydrochloride (Sigma p-7288) at a concentration of 0.4 mg/ml in 0.05 M phosphate citrate buffer, pH 5.0 supplemented with 4 ul of 30% hydrogen peroxide (Aldrich) for 10 ml mixture. To detect the level of NST500 compounds that were bound to CL, parallel wells were incubated with streptavidin conugated to OPD (SA-OPD, Jackson Immunoresearch lab.), that specifically recognize the biotinylated NST 500 compounds. The resulting colour changes were recorded at 405 nm using a Bio Tek Elx800 Eliza reader.
# [9] = test system: HUVEC cells; experiment: Cell-ELISA: binding of anti β2GPI antibodies to HUVEC cells; format: cell-based, Human
# Experimental: Human β2GPI is a plasma phospholipid binding protein that is required for the binding of autoantibodies in sera from patients with APS to cardiolipin (McNeil H P et al., 1990 Proc. Natl. Acad. Sci. 87, 4120–4124). […] Anti β2GPI antibodies are present in sera of APS patients. […] For cell-ELISA tests, HUVEC cells (at 40,000/well), were plated on 96 well tissue culture plates (Nunc) in 200 μl of the culture medium, and allowed to grow for 18–22 hours. Following 2 washes with Hepes buffer (10 mM Hepes pH 8, 140 mM NaCl) and 5 min incubation with the culture medium, the wells were incubated for 3 hr with 10% of normal plasma in PBS (as a source of β2 GPI protein), supplemented with 1/500 of goat anti-human Apolipoprotein-H (β2 GPI) (Affinity biologicals, PA). Parallel control wells were incubated with 10% of normal plasma from Ilex. Serial dilutions of NST500 compounds were prepared in plasma/PBS. Washes and development were as described for anti CL ELISA.
# As presented in FIG. 5B, in the presence of plasma and absence of NST500, HUVEC cells supported binding of anti β2GPI to their surface. However, displacement of anti β2GPI by NST500 compounds in this system occurred in a concentration dependent manner, similar to the results obtained with CL.
Substance,"staining of apoptotic cells, exogenously added [1]",clearance [2],inhibition of arterial thrombosis [3],fraction of HUVEC cells labeled [4],higher FITC labeled HUVEC cells as compared to NST513 [4],increase in labeled HUVEC cells as compared to background of control cells without compound [4],effect on clotting time of apoptotic cells ([5]; 2.5–2.2 μM),increase of clotting time of apoptotic cells (factor) ([5]; 2.5–2.2 μM),"clotting time of apoptotic cells ([5]; apoptotic cells alone 50 seconds, control cells 80 seconds)",binding to apoptotic HeLa cells relative to NST513 [6],delay in thrombin generation [7],potency in inhibiting thrombin generation compared to NST513 [7],"thrombin generation by HUVEC cells, dose response [7]",potency relative to NST513 in inhibiting binding of SLE plasma to CL [8],displacement of plasma derived from SLE patients from cardiolipin ([8]; 1 μM),lowering of binding of plasma derived from SLE patients to CL (factor) ([8]; 1 μM),displacement of plasma derived from SLE patients from cardiolipin ([8]; 10 μM),"inhibition of binding of plasma derived from SLE patients to cardiolipin, dose response ([8]; 1–10 μM)",blocking of binding of anti β2 GPI antibodies to HUVEC cells [9],inhibiting activity relative to NST513 [9]
Annexin V: 320 amino acid protein of the annexin family with Ca2+-dependent binding to anionic phospholipid membranes,same pattern of staining,90%,effectively achieved,–,–,–,–,–,–,–,–,–,–,–,–,–,–,–,–,–
Myristate-KKVSFFCKNKEKKC-K(SEQ ID NO:2) (biotin) [NST516],–,–,–,83%,70%,8 fold,marked and dose dependent inhibition of clotting time; also recorded: dose-dependent effect,4.5 times,225 s,3.5 fold,5 min,more potent compound in inhibiting thrombin generation,dose dependence inhibition of thrombin generation,10 times,marked displacement,2,almost complete displacement,marked displacement of IgG,dramatic and significant ability to block binding,two times better
